Laboratory results from US20260216199A1, “RAF INHIBITOR AND KRAS G12C INHIBITOR COMBINATION THERAPY” (Erasca, Inc., priority 2023, published 2026).

Assays:
[1] = tested on: cell lines that contain a variety of mutations that activate MAPK signaling; assay: Cell-based anti-proliferative assays; details: cell lines with mutations that activate MAPK signaling
BRAF = BRAF (Homo sapiens, UniProt P15056); assay: BRAF inhibition; assay type: biochemical
[2] = tested on: NSCLC-derived Calu-6 (KRAS Q61K); assay: In vivo KRAS-mutant tumor model Calu-6; details: Calu-6 (KRAS Q61K) model, well-tolerated doses
NCI-H358 (KRAS G12C) = assay: In vivo KRAS-mutant tumor model NCI-H358; details: well-tolerated doses
CRAF = CRAF (Homo sapiens, UniProt P04049); assay: CRAF inhibition; assay type: biochemical
CRAF, sequence (P04049 whole entry): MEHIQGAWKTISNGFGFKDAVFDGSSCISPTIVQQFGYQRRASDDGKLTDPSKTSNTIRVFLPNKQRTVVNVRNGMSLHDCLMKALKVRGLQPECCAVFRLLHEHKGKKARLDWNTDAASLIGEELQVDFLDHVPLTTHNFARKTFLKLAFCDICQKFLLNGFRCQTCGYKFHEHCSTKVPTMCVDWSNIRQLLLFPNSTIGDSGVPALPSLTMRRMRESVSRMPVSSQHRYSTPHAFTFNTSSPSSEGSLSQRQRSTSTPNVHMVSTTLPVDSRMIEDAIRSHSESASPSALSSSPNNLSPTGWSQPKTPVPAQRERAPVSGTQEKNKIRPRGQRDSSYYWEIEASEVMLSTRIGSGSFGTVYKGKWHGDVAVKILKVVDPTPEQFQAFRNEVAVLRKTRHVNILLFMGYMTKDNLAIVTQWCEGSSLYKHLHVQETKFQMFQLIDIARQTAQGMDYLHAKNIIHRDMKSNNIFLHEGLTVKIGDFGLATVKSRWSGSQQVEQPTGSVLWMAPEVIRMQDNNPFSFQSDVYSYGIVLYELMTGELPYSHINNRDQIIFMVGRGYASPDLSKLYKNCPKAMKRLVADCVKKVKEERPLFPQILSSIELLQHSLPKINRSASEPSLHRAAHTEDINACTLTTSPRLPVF

BRAF, sequence (P15056 whole entry): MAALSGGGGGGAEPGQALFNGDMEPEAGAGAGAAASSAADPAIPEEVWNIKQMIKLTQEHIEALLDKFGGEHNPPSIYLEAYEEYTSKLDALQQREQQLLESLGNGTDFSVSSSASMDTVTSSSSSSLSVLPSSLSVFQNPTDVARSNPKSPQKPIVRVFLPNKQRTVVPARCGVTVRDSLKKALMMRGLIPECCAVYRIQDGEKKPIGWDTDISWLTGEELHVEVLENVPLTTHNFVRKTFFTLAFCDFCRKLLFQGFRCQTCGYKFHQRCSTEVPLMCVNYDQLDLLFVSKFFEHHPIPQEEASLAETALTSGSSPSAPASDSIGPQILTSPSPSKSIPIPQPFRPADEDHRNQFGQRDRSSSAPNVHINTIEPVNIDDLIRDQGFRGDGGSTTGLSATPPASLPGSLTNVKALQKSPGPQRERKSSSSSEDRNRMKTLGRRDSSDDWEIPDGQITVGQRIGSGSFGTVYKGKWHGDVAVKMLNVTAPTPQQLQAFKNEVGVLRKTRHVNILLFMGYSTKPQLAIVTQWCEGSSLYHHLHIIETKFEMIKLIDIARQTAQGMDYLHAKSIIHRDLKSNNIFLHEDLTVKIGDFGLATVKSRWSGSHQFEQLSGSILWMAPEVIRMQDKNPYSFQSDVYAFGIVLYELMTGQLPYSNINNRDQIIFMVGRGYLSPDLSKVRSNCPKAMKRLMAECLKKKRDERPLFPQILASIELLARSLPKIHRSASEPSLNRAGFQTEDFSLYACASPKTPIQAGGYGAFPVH

Cc1ccc(NC(=O)c2ccnc(C(F)(F)F)c2)cc1-c1cc(OCCO)nc(N2CCOCC2)c1 [Compound of formula (I)]
anti-proliferative activity in cell lines [1]: anti-proliferative activity
inhibition of BRAF (BRAF): potent inhibitors
tumor response in vivo [2]: tumor regression
tumor response in vivo (NCI-H358 (KRAS G12C)): tumor regression
inhibition of CRAF (CRAF): potent inhibitors
